Data reported in patent US9028845B2, “Chimeric immunomodulatory compounds and methods of using the same-IV” (Dynavax Technologies Corporation, priority 2001, dated 2015).
Strand notation (5' to 3'): a small letter for the sugar, then the base; units joined by * are phosphorothioate-linked, units joined directly phosphodiester-linked; [ ] holds rarer units or linkages, { } end groups; capitals alone tell only the bases. d = 2'-deoxy (DNA)

Key:
CD19+ B cells = assay: Human B cell proliferation assay (3H-thymidine incorporation); details: 2 μg/ml; for cpm1 / cpm2 / cpm3 / mean cpm / mean of both: B cells
PBMCs = assay: Human PBMC proliferation assay (3H-thymidine incorporation); assay type: cell-based; details: Experiment A; for mean cpm: 2 μg/ml

5′-TGACTGTGAACCTTAGAGATGA-3′ (SEQ ID NO: 3) (dT*dG*dA*dC*dT*dG*dT*dG*dA*dA*dC*dC*dT*dT*dA*dG*dA*dG*dA*dT*dG*dA) [Compound P-7, negative control, reference compound]
B cell proliferation, in words (CD19+ B cells; 48 h plus 8 h 3H-thymidine pulse): little to no B cell proliferation
cpm1 (CD19+ B cells; Donor 146, Experiment A): 4858 cpm
cpm2 (CD19+ B cells; Donor 146, Experiment A): 5810 cpm
cpm3 (CD19+ B cells; Donor 146, Experiment A): 7079 cpm
mean cpm (CD19+ B cells; Donor 146 mean, Experiment A): 5916 cpm
cpm1 (CD19+ B cells; Donor 147, Experiment A): 4364 cpm
cpm2 (CD19+ B cells; Donor 147, Experiment A): 4066 cpm
cpm3 (CD19+ B cells; Donor 147, Experiment A): 2774 cpm
mean cpm (CD19+ B cells; Donor 147 mean, Experiment A): 3735 cpm
cpm1 (CD19+ B cells; donor 121, Experiment B): 1623 cpm
cpm2 (CD19+ B cells; donor 121, Experiment B): 1821 cpm
cpm3 (CD19+ B cells; donor 121, Experiment B): 2901 cpm
mean cpm (CD19+ B cells; donor 121 mean, Experiment B): 2115 cpm
cpm1 (CD19+ B cells; donor 194, Experiment B): 1992 cpm
cpm2 (CD19+ B cells; donor 194, Experiment B): 1593 cpm
cpm3 (CD19+ B cells; donor 194, Experiment B): 1686 cpm
mean cpm (CD19+ B cells; donor 194 mean, Experiment B): 1757 cpm
mean of both (CD19+ B cells; mean of Donors 146 and 147, Experiment A): 4825 cpm
mean of both (CD19+ B cells; mean of donors 121 and 194, Experiment B): 1936 cpm
cpm1 (PBMCs; Donor 146, 2 μg/ml): 7620 cpm
cpm2 (PBMCs; Donor 146, 2 μg/ml): 8362 cpm
cpm3 (PBMCs; Donor 146, 2 μg/ml): 9686 cpm
mean cpm (PBMCs; Donor 146 mean): 8556 cpm
cpm1 (PBMCs; Donor 147, 2 μg/ml): 9783 cpm
cpm2 (PBMCs; Donor 147, 2 μg/ml): 9841 cpm
cpm3 (PBMCs; Donor 147, 2 μg/ml): 10476 cpm
mean cpm (PBMCs; Donor 147 mean): 10033 cpm
mean of both (PBMCs; mean of Donors 146 and 147, 2 μg/ml): 9295 cpm
